# Like-named read-outs stand apart in the source and are kept apart here.
# Assays:
# [1] = Stability of QC samples in rat plasma; format: in vitro ADME; settings: for %Theoretical, Autosampler: extracted plasma QC; for %Theoretical, Long-term / %Theoretical, 24 h ambient / %Theoretical, freeze-thaw: rat plasma; for %Theoretical, Long-term: 2 weeks at -20°C
# Procedure: Six replicates of the QC samples at low, medium and high concentrations subjected to the conditions below were evaluated for the stability of IMB-4py5-2H in rat plasma. Short-term stability was assessed by the analysis of the QCs kept at room temperature for 24 h, which exceeded the routine preparation time of the samples. Long-term stability was determined by assaying the QCs after storage for 2 weeks at −20°C. Freeze–thaw stability was investigated after three freeze (−20°C)–thaw (room temperature) cycles. Post-preparative stability was assessed by analyzing the extracted QC samples kept in autosampler at 4°C for 24 h.
# [2] = biological target: T1, CYP1A2 (Homo sapiens, UniProt P05177); experiment: Metabolism by recombinant human P450 enzyme; format: in vitro ADME; settings: recombinant CYP1A2 0.05 nmol/mL, 1 μM, 30 min
# T1 construct: purchased Corning (Woburn, MA, USA)
# T1 sequence (P05177 1-516): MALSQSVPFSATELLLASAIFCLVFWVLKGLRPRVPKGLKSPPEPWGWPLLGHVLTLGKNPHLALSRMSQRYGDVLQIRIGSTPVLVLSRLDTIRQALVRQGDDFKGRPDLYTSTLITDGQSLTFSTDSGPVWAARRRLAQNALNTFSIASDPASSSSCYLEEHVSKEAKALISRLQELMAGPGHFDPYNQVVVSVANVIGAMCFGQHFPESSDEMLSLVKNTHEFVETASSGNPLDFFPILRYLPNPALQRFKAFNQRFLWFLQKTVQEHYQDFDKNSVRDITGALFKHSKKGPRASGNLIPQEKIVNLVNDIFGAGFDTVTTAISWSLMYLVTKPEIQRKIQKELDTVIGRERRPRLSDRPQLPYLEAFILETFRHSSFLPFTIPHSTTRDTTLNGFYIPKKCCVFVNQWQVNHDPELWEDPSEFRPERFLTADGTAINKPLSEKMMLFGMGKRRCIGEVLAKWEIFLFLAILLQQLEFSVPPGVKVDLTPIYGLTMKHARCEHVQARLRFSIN
# Procedure: (§1) In addition, to characterize the enzymes that may be involved in microsomal metabolism, IMB-YH-4py5-2H was incubated at 37°C for 30 min with different recombinant human P450 enzymes, i.e., CYP1A2, CYP2A6, CYP2B6, CYP2C8, CYP2C9, CYP2C19, CYP2D6, CYP2E1, CYP3A4 and CYP3A5. The incubation system included CYP isoenzyme at a final concentration of 0.05 nmol/mL, 100 mM PBS (pH 7.4) or 100 mmol/L Tris buffer (pH 7.5, Tris buffer was used in the CYP2C9 and CYP2A6 reaction systems and PBS was used for the other enzymes), NADPH regeneration system, and 1 μM IMB-YH-4py5-2H.
# (§2) After incubation, the samples were processed as described in “Sample processing”. All experiments were performed in triplicate. The concentration of IMB-YH-4py5-2H was measured using LC-MS/MS analysis.
# [3] = biological target: T2, CYP2A6 (Homo sapiens, UniProt P11509); experiment: Metabolism by recombinant human P450 enzyme; format: in vitro ADME; settings: recombinant CYP2A6 0.05 nmol/mL, 1 μM, 30 min
# T2 construct: purchased Corning (Woburn, MA, USA)
# T2 sequence (P11509 1-494): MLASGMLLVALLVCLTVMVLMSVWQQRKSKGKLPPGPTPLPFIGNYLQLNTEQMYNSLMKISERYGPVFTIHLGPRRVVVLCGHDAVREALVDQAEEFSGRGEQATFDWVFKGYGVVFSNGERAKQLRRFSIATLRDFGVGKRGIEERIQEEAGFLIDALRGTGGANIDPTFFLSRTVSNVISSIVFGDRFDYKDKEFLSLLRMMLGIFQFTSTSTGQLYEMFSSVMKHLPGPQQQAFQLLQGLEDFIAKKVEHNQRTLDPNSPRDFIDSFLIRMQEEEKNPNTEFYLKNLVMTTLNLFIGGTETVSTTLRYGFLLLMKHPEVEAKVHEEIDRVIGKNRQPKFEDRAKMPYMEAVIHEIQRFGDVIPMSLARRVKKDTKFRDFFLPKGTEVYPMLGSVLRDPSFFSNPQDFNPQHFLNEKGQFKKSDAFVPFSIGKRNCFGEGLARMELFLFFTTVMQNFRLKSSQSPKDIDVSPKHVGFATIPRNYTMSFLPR
# Procedure: as §1, §2
# [4] = Pharmacokinetic study in rats, single oral dose; format: in vivo, Sprague-Dawley rats; settings: for AUC(0-inf) / CL/F / MRT / Tmax / AUC(0-t) / Vd/F / half-life / Cmax: both sexes, Sprague-Dawley; for AUC(0-inf) / CL/F / MRT / Tmax / AUC(0-t) / Vd/F / half-life: plasma, rat; for AUC(0-t): read-out: AUC0-60; for Vd/F: read-out: Vz/F; for half-life: po; for Cmax: rat plasma
# Procedure: A total of 18 adult SD rats were randomly divided into three dosing groups (half male and half female). IMB-YH-4py5-2H suspensions were freshly prepared in 1% (w/v) sodium carboxymethyl cellulose (CMC-Na). The rats were fasted with free access to water for 12 h prior to the oral administration of IMB-YH-4py5-2H at doses of 50, 100 or 200 mg/kg and fasted for another 2 h after administration. Blood samples of 0.2 mL were collected via the post-orbital venous plexus vein at 0.033, 0.083, 0.167, 0.333, 0.5, 0.75, 1, 1.5, 2, 4, 6, 8, 12, 24, 36, 48, and 60 h post dosing into a heparinized tube. Plasma samples, obtained by centrifuging blood at 2300 × g for 15 min at 4°C, were stored at −20°C until analysis.
# The pharmacokinetic parameters of IMB-YH-4py5-2H were calculated by WinNonlin (Version 6.1, Pharsight Corp., Mountain View, CA, USA) using a non-compartmental model. Data were expressed as the mean ± standard deviation (S.D.).
compound,measurement,setting,value
"CN(C)C(=O)/C=C/C(=O)c1ccc(-c2ccncc2)cc1.Cl [IMB-YH-4py5-2H, (E)-N,N-dimethyl-4-oxo-4-(4-(pyridin-4-yl)phenyl)but-2-enamide hydrochloride]","%Theoretical, Autosampler","[1]; autosampler 4°C 24 h, nominal 2.5 ng/mL",100.11 ± 1.20%
same,"%Theoretical, Autosampler","[1]; autosampler 4°C 24 h, nominal 20 ng/mL",103.26 ± 6.07%
same,"%Theoretical, Autosampler","[1]; autosampler 4°C 24 h, nominal 80 ng/mL",97.85 ± 4.96%
same,"%Theoretical, Long-term",[1]; nominal 2.5 ng/mL,92.33 ± 4.21%
same,"%Theoretical, Long-term",[1]; nominal 20 ng/mL,91.65 ± 3.91%
same,"%Theoretical, Long-term",[1]; nominal 80 ng/mL,94.98 ± 7.26%
same,"%Theoretical, 24 h ambient","[1]; room temperature 24 h, nominal 2.5 ng/mL",94.35 ± 3.65%
same,"%Theoretical, 24 h ambient","[1]; room temperature 24 h, nominal 20 ng/mL",91.96± 5.79%
same,"%Theoretical, 24 h ambient","[1]; room temperature 24 h, nominal 80 ng/mL",103.77 ±2.51%
same,"%Theoretical, freeze-thaw","[1]; three freeze-thaw cycles, nominal 2.5 ng/mL",90.11 ± 6.19%
same,"%Theoretical, freeze-thaw","[1]; three freeze-thaw cycles, nominal 20 ng/mL",88.79 ± 3.27%
same,"%Theoretical, freeze-thaw","[1]; three freeze-thaw cycles, nominal 80 ng/mL",94.17 ± 5.10%
same,stability in rat plasma,"[1]; room temperature 24 h, -20°C 2 weeks, three freeze-thaw cycles, autosampler 4°C 24 h",stable
same,metabolism by CYP isozyme,[2],high metabolic activity
same,metabolism by CYP isozyme,[3],high metabolic activity
same,AUC(0-inf),[4]; single oral dose 50 mg/kg,1.44 ± 0.37 µg·h/mL
same,CL/F,[4]; single oral dose 50 mg/kg,36.8 L/h/kg
same,MRT,[4]; single oral dose 50 mg/kg,7.63 ± 1.58 h
same,Tmax,[4]; single oral dose 50 mg/kg,0.28 ± 0.08 h
same,AUC(0-t),[4]; single oral dose 50 mg/kg,1.4 ± 0.367 µg·h/mL
same,Vd/F,[4]; single oral dose 50 mg/kg,379 ± 100 L/kg
same,AUC(0-inf),[4]; single oral dose 100 mg/kg,2.85 ± 0.43 µg·h/mL
same,CL/F,[4]; single oral dose 100 mg/kg,36.6 L/h/kg
same,MRT,[4]; single oral dose 100 mg/kg,7.7 ± 1.43 h
same,Tmax,[4]; single oral dose 100 mg/kg,0.44 ± 0.09 h
same,AUC(0-t),[4]; single oral dose 100 mg/kg,2.84 ± 0.425 µg·h/mL
same,Vd/F,[4]; single oral dose 100 mg/kg,336 ± 74 L/kg
same,AUC(0-inf),[4]; single oral dose 200 mg/kg,5.73 ± 0.664 µg·h/mL
same,CL/F,[4]; single oral dose 200 mg/kg,35.3 L/h/kg
same,MRT,[4]; single oral dose 200 mg/kg,10.7 ± 0.85 h
same,Tmax,[4]; single oral dose 200 mg/kg,0.33 h
same,AUC(0-t),[4]; single oral dose 200 mg/kg,5.71 ± 0.659 µg·h/mL
same,Vd/F,[4]; single oral dose 200 mg/kg,394 ± 58 L/kg
same,half-life,"[4]; 50 mg/kg, single oral dose 50 mg/kg, read-out: t1/2 (converted)",7.24 ± 1.61 h
same,half-life,"[4]; 100 mg/kg, single oral dose 100 mg/kg, read-out: t1/2 (converted)",6.37 ± 0.93 h
same,half-life,"[4]; 200 mg/kg, oral, all three dosing groups (50, 100, 200 mg/kg), read-out: half-life (converted)",~7 h
same,half-life,"[4]; 200 mg/kg, single oral dose 200 mg/kg, read-out: t1/2 (converted)",7.71 ± 0.41 h
same,Cmax,[4]; single oral dose 50 mg/kg,0.367 ± 0.023 µg/mL
same,Cmax,[4]; single oral dose 100 mg/kg,0.586 ± 0.0312 µg/mL
same,Cmax,[4]; single oral dose 200 mg/kg,1.3 ± 0.194 µg/mL
same,AUC relative to that of YH-8,"[4]; following the same oral dose, YH-8 data ref 20",approximately 2.5 fold

# Source: article PMC7029871, “Development and validation of a sensitive LC-MS/MS method for the quantitation of IMB-YH-4py5-2H, an antituberculosis candidate, and its application to the pharmacokinetic study” (PLoS ONE, 2020)
